We go through three compounds from PMC4786016 (Environmental science & technology, 2015).

The subject of series [1] is PPARγ. The note with it: cited from earlier work.
Series [2] has as its target T1, human PPARγ1 (Homo sapiens, UniProt P37231). As to the kind of experiment: GeneBLAzer PPARγ1 non-DA reporter gene assay.
In series [3] the target is T1, human PPARγ1.
In series [4] the test system is PPARγ2. To be noted: PPARγ2, U2OS reporter assay; cited from earlier work.

tri(2-butoxyethanol) phosphate [TBOEP]: the “PPARγ binding potency (in words)” value in series [1] is recorded as “significant binding potential at the highest dose level tested”. Also, in series [2], the “ATVmax: maximal activation% of the tested compounds relative to rosiglitazone” value is 13%; the “[ATVmax]: concentration of the tested compounds to induce the maximal activation%” value (“[ATVmax] … to induce the maximal activation%” below) was determined as 11 µM; the “efficacy (qualitative, based on ATVmax)” value is given as “+ (key: + 7–20%; ++ 20–30%; +++ 30–40%; ++++ 40–50%; +++++ >50%)”.

In the case of `Oc1c(Br)ccc(Oc2ccc(Br)cc2Br)c1Br` [3-OH-BDE47, 3-hydroxide-2,2′,4,4′-tetrabromodiphenyl ether (metabolite)], the “PPARγ binding potency (in words)” value in series [1] is recorded as “comparable binding potency to rosiglitazone”. Besides, in series [2], the “ATVmax: maximal activation% of the tested compounds relative to rosiglitazone” value was found to be 42%, the “EC15 (concentration inducing 15% activation)” value amounted to 2.01 µM, the “EC20 (concentration inducing 20% activation)” value came to 2.993 µM and the “[ATVmax] … to induce the maximal activation%” value was found to be 7 µM. Moreover, in series [2], the “concentration at which the compound began to activate PPARγ1” value was 0.8 µM and the “efficacy (qualitative, based on ATVmax)” value is “++++ (key: + 7–20%; ++ 20–30%; +++ 30–40%; ++++ 40–50%; +++++ >50%)”. The no observed adverse effect level (NOAEL) in series [3] was 0.8 µM.

Take `Brc1ccc(Oc2ccc(Br)cc2Br)c(Br)c1` [BDE47, 2,2′,4,4′-tetrabromodiphenyl ether]: in series [2], the “EC15 (concentration inducing 15% activation)” value was found to be 5.2 µM; the “EC20 (concentration inducing 20% activation)” value was determined as 7 µM; the “[ATVmax] … to induce the maximal activation%” value was determined as 7 µM; the “efficacy (qualitative, based on ATVmax)” value was “++ (key: + 7–20%; ++ 20–30%; +++ 30–40%; ++++ 40–50%; +++++ >50%)”. In addition, the Emax in series [2] (HEK293, read-out: ATVmax: maximal activation% of the tested compounds relative to rosiglitazone) was 20%. Also, the 5% induction concentration in series [4] is 10 µM. The NOAEL in series [3] was determined as 0.8 µM.
